{
  "source": "paper PMC6141739",
  "about": "“TFPI-2 Protects Against Gram-Negative Bacterial Infection” (Frontiers in Immunology, 2018)",
  "key": {"[1]": {"test_system": "Escherichia coli", "experiment": "Viable count assay (VCA)", "format": "cell-based, Escherichia coli ATCC 25922", "experimental": "Escherichia coli bacteria were grown to mid-logarithmic phase in 10 ml of (3% w/v) Todd-Hewitt (TH), bacteria were washed and diluted in buffer 10 mM Tris, pH 7.4, containing 150 mM NaCl, either alone or with the presence of human 20% citrate plasma, lepirudin, heparin, EDTA plasma, or serum. 1–2 × 10^6 cfu/ml bacteria were incubated in a total volume of 50 μl with the indicated concentrations of C-terminal TFPI-2 derived peptides for 2 h at 37°C. Alternatively, 1–2 × 10^6 cfu/ml of E. coli bacteria in the presence or absence of EDC34 were incubated either in PBS alone or PBS supplemented with 25% of human citrated plasma, immunoglobulins depleted citrated plasma, or immunoglobulins depleted citrated plasma supplemented with 10 μg of IgG/μl, for 2 h at 37°C. Serial of dilutions of the reaction mixture were plated on TH agar plates, followed by the incubation at 37°C overnight. The number of colony forming units was determined as a percentage to control sample."}, "[2]": {"test_system": "P. aeruginosa", "experiment": "Viable count assay (VCA)", "format": "cell-based, Pseudomonas aeruginosa", "details": "20% human citrate plasma, 2 h 37°C (Figure 3A,B); text does not separate the two bacteria"}, "[3]": {"target": "IgE (Homo sapiens, UniProt P01854)", "sequence (P01854 1-428 isoform P01854-1)": "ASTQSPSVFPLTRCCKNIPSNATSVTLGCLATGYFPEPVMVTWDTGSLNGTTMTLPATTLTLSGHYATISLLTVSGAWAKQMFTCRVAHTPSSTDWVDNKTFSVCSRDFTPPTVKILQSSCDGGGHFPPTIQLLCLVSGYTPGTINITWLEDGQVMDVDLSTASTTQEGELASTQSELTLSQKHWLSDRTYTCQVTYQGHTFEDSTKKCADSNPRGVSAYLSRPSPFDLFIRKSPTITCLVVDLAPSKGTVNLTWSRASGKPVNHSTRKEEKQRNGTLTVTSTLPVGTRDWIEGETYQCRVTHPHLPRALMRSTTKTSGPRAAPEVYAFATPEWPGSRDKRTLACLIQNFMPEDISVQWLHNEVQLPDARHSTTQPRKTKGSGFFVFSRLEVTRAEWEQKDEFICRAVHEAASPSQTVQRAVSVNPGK", "experiment": "Binding to IgE, SDS-PAGE and immunoblotting", "details": "0.5 μg EDC34 with 3 μg IgE, 1 h 37°C; immunoblot (Figure 1C)", "experimental": "(§1) Three μg of IgG or IgA or IgE or IgM were incubated in 20 μl of buffer (10 mM Tris, 150 mM NaCl, pH 7.4), either alone or with 0.5 μg (6 μM) of EDC34 for 1 h at 37°C. Samples were diluted in SDS buffer and analyzed under non-reducing conditions by SDS-PAGE on Criterion TGX Any kD Gel (BioRad). Alternatively, EDC34 (6 μM) was incubated either alone or in PBS containing 20% serum, citrate, lepirudin, EDTA plasma at different time points (15, 30, 60, and 120 min). Samples were analyzed under non-reducing conditions."}, "[4]": {"test_system": "Gram-negative bacteria", "details": "cited from earlier work", "excerpt": "(§2) Previous studies have shown that complement activation can be amplified by targeting certain proteins such as complement factor C3 ([33]). Elvington et al. for instance described in 2012 a method showing that complement activation can be used as cancer therapy. To this end the authors employed a fusion protein of a complement receptor and an IgG Fc fragment to improve the outcome of mAb therapy in a murine metastatic cancer model ([33]). […] Moreover EDC34 is able to up re ..."}, "[5]": {"test_system": "C1q", "details": "cited from earlier work", "excerpt": "as §2"}, "[6]": {"test_system": "C3a", "details": "cited from earlier work", "excerpt": "as §2"}, "[7]": {"test_system": "IgA", "experiment": "Binding to IgA, SDS-PAGE and immunoblotting", "parameters": "species or system human", "details": "0.5 μg EDC34 with 3 μg IgA, 1 h 37°C; immunoblot (Figure 1C)", "experimental": "as §1"}, "[8]": {"test_system": "C1q on the surface of E. coli bacteria", "experiment": "Pull down assay, C1q recruitment to the bacterial surface", "parameters": "species or system Escherichia coli", "details": "citrate plasma with 10 μM EDC34, 1 h 37°C; anti-C1q immunoblot; versus plasma alone (Figure 2B)"}, "[9]": {"test_system": "Fab-IgG", "experiment": "Binding to Fab fragment of IgG, western blot", "details": "6 μM EDC34 with 6 μM Fab-IgG, 30 min 37°C; western blot (Figure 1E)", "experimental": "(§3) Six μM of EDC34 was either incubated alone or with IgGs in 10 mM Tris, 150 mM NaCl, pH 7.4 buffer, under similar concentrations for 15, 30, 60, 120 min or 24 h at 37°C. In another experiment, 6 μM of EDC34 was pre-incubated with 50 μM of TCEP (tris(2-carboxyethyl)phosphine) for 30 min at room temperature before IgG (6 μM) was added. The mixture was further incubated for 24 h at 37°C. In another experiment, 6 μM of IgG or Fab-IgG or Fc-IgG were incubated with or without 6 μM of EDC34 in 10 mM Tris, 150 mM NaCl, pH 7.4 buffer for 30 min at 37°C. Proteins and peptides were transferred to nitrocellulose membranes (Hybond-C), blocked by 5% (w/v) skimmed milk, washed and incubated with rabbit polyclonal antibodies to CAK27 or rabbit polyclonal antibodies to IgG (or 1:1,000) (Dako) or rabbit polyclonal antibodies to C1q (or 1:1,000) (Dako). Polyclonal swine anti-rabbit immunoglobulin secondary HRP antibody (1:1,000) was used for detection and an enhanced chemiluminescent Substrate (LumiGLO) developing system (Upstate cell signaling solutions)."}, "[10]": {"test_system": "human IgG", "experiment": "Surface plasmon resonance on IgG-coated chip", "format": "binding", "details": "SPR, IgG on CM5 chip, peptide 25–400 nM, 25°C, Hepes running buffer pH 7.5 (Figure 3E)", "experimental": "IgG was immobilized (15 μg/mL) on a CM5 sensor chip via amine coupling in a 10 mM sodium acetate buffer (pH 4). A blank immobilization was performed in flow cell one. EDC34 was injected at different concentrations (25–400 nM) at a flow rate of 30 μl/min and a temperature of 25°C over the flow cells using a running buffer containing 10 mm Hepes, 150 mm NaCl, 0.005% surfactant P20, and 3.4 mM EDTA (pH 7.5). Regeneration of the sensor surface was conducted in 0.5 M sodium chloride. The analysis was performed using a Biacore X100 instrument (GE Healthcare, Uppsala, Sweden) and the data was fitted using a 1:1 binding model."}, "[11]": {"test_system": "IgG", "experiment": "Binding to IgG, SDS-PAGE and immunoblotting", "parameters": "species or system human", "experimental": "as §1\nas §3, with “Polyclonal swine anti-rabbit immunoglobulin secondary HRP antibody (1:1,000) was used for detection and an enhanced chemiluminescent Substrate (LumiGLO) developing system (Upstate cell signaling solutions).” left out"}, "[12]": {"test_system": "IgM", "sequence (P01871 1-453 isoform P01871-1)": "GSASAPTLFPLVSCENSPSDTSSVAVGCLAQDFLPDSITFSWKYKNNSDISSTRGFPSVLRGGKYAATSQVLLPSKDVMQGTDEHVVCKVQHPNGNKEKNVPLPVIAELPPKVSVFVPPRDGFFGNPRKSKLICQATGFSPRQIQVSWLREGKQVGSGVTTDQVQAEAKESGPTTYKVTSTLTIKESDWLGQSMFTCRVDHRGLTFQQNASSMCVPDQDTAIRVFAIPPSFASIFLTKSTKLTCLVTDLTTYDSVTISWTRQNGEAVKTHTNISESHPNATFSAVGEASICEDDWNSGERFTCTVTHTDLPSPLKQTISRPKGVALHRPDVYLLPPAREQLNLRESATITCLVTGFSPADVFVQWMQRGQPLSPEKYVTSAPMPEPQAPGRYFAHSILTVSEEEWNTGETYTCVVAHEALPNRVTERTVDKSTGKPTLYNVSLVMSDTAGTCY", "sequence (P01591 23-159, further chain)": "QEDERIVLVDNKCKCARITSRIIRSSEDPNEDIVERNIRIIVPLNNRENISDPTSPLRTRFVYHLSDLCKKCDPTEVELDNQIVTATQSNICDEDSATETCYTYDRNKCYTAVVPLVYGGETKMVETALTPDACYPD", "experiment": "Binding to IgM, SDS-PAGE and immunoblotting", "parameters": "species or system human", "details": "0.5 μg EDC34 with 3 μg IgM, 1 h 37°C; immunoblot (Figure 1C)", "experimental": "as §1"}, "[13]": {"test_system": "Fc-IgG", "experiment": "Binding to Fc fragment of IgG, western blot", "details": "6 μM EDC34 with 6 μM Fc-IgG, 30 min 37°C; western blot (Figure 1E)", "experimental": "as §3"}, "[14]": {"test_system": "Escherichia coli", "experiment": "Radial diffusion assay (RDA)", "format": "cell-based", "details": "100 μM peptide, high salt (150 mM NaCl), n = 3 (Figure 3C,D)", "experimental": "Escherichia coli was grown to mid-logarithmic phase in 10 ml (3% w/v) of trypticase soy broth (TSB). Bacteria were washed and re-suspended in 10 mM Tris, pH 7.4 to obtain a dilution of 1% of bacterial suspension (1–2 × 10^9 colony forming units cfu/ml). Subsequently, 6.6 μl of bacteria were added to 15 ml of melted underlay agarose gel consisting of 0.03% (w/v) TSB, 1% (w/v) low electroendosmosis type (EEO) agarose and 0.02% (v/v) Tween 20 (Sigma) with or without 150 mM NaCl. The mixture was poured to a 144 mm sterile petri dish and left to solidify. After that, 4 mm diameter wells were punctured and 100 μM peptides were added to each well. Plates were incubated for 3 h at 37°C and then covered by adding 15 ml of over-lay gel consisting of 6% TSB and 1% Low-EEO agarose in Millipore water. After 16–24 h of incubation at 37°C, the peptides diffusion around each well formed the zone of inhibition, which corresponded to the peptide's antimicrobial activity."}, "[15]": {"test_system": "human IgG on E. coli bacteria", "experiment": "Pull down assay, IgG opsonization on the bacterial surface", "parameters": "species or system Escherichia coli", "experimental": "In a total volume of 500 μl PBS buffer, 2 μM of EDC34, and 8 μM of IgG were incubated for 24 h at 37°C. Subsequently, E. coli bacteria (1–2 × 10^6 cfu/ml) were added, and then the mixture was incubated for additional 1 h. In a parallel experiment, the bacteria in the presence of absence of EDC34 were incubated for 30 min at 37°C before IgG was added for 1 h at 37°C. Samples were then centrifuged, bacterial pellets were washed twice with PBS and then re-suspended in 360 μl of 0.1 M glycine, pH 2.0 to elute the bound proteins. The pH of the eluted material was raised to 7.5 with 1 M Tris. Thereafter, 100 μl of 100% TCA were added to precipitate the eluted proteins followed by incubation for 10 min at −20° C followed by a centrifugation step for 20 min at 15,000 × g (4°C). The pellets were washed with acetone and left to air dry before they were dissolved in loading dye and analyzed under non-reducing conditions by SDS-PAGE, followed by Western blot analysis."}},
  "data": [
    {"sequence": "DAAQEPTGNNAET [DAA14, control peptide derived from the N-terminal region of human TFPI-2, reference compound]", "values": [
      {"measurement": "antimicrobial activity in plasma, E. coli", "setting": "[1]; 20% human citrate plasma, 2 h 37°C (Figure 3A,B), text does not separate the two bacteria", "value": "no antimicrobial activity"},
      {"measurement": "antimicrobial activity in plasma, P. aeruginosa", "setting": "[2]", "value": "no antimicrobial activity"}
    ]},
    {"sequence": "EDCKRACAKALKKKKKMPKLRFASRIRKIRKKQF [EDC34, C-terminal peptide derived from human TFPI-2]", "values": [
      {"measurement": "binding to IgE", "setting": "[3]", "value": "avidly binds"},
      {"measurement": "eradication of Gram-negative bacteria in vivo", "setting": "[4]", "value": "significant capacity to eradicate"},
      {"measurement": "binding of C1q to bacterial surfaces", "setting": "[5]", "value": "enhances the binding of C1q to bacterial surfaces"},
      {"measurement": "antimicrobial activity of C3a", "setting": "[6]", "value": "able to up regulate the antimicrobial activity of C3a"},
      {"measurement": "binding to IgA", "setting": "[7]", "value": "avidly binds"},
      {"measurement": "C1q at the surface of E. coli bacteria", "setting": "[8]", "value": "recruitment of C1q"},
      {"measurement": "binding to Fab fragment of IgG", "setting": "[9]", "value": "only the Fc fragment is able to bind"},
      {"measurement": "affinity for human IgG", "setting": "[10]", "value": "highest affinity"},
      {"measurement": "antimicrobial activity against E. coli", "setting": "[1]; EDC34 6 μM, 10 mM Tris, 150 mM NaCl, pH 7.4 with 20% citrate plasma, 2 h 37°C, n = 3 (Figure 1A)", "value": "completely eradicate the bacteria"},
      {"measurement": "antimicrobial activity against E. coli", "setting": "[1]; EDC34 6 μM, buffer with 20% EDTA plasma, 2 h 37°C, n = 3 (Figure 1A)", "value": "decreased"},
      {"measurement": "bacterial survival rate", "setting": "[1]; EDC34 6 μM, buffer with 20% heparin plasma, 2 h 37°C, n = 3 (Figure 1A)", "value": "exceeding 80%"},
      {"measurement": "antimicrobial activity against E. coli", "setting": "[1]; EDC34 6 μM, buffer with 20% lepirudin plasma, 2 h 37°C, n = 3 (Figure 1A)", "value": "decreased"},
      {"measurement": "antimicrobial activity against E. coli", "setting": "[1]; EDC34 6 μM, buffer with 20% serum, 2 h 37°C, n = 3 (Figure 1A)", "value": "decreased"},
      {"measurement": "killing of E. coli", "setting": "[1]; EDC34 in PBS alone, 2 h 37°C, n = 3 (Figure 2C)", "value": "moderate killing activity"},
      {"measurement": "killing of E. coli", "setting": "[1]; EDC34 in PBS with 25% citrate plasma, 2 h 37°C, n = 3 (Figure 2C)", "value": "~100", "unit": "%"},
      {"measurement": "antimicrobial activity", "setting": "[1]; EDC34 in PBS with 25% immunoglobulin-depleted citrate plasma reconstituted with IgG, 2 h 37°C, n = 3 (Figure 2C)", "value": "retained its full antimicrobial activity"},
      {"measurement": "bacterial survival", "setting": "[1]; EDC34 in PBS with 25% immunoglobulin-depleted citrate plasma, 2 h 37°C, n = 3 (Figure 2C)", "value": "Bacterial survival was increased"},
      {"measurement": "binding to IgG", "setting": "[11]; 0.5 μg EDC34 with 3 μg IgG, 10 mM Tris, 150 mM NaCl, pH 7.4, 1 h 37°C, immunoblot (Figure 1C)", "value": "avidly binds"},
      {"measurement": "interaction with IgG over time", "setting": "[11]; EDC34 and IgG 1:1 (6 μM), 37°C, after 24 h incubation (Figure 1D)", "value": "entirely absorbed"},
      {"measurement": "binding to IgM", "setting": "[12]", "value": "avidly binds"},
      {"measurement": "binding to Fc fragment of IgG", "setting": "[13]", "value": "able to bind"},
      {"measurement": "antimicrobial activity, zone of inhibition", "setting": "[14]", "value": "able impair bacterial growth"},
      {"measurement": "opsonization of immunoglobulin on the bacterial surface", "setting": "[15]; EDC34 (2 μM) pre-incubated with IgG (8 μM) 24 h in PBS, then E. coli 1 h 37°C (Figure 2A)", "value": "increased opsonization"},
      {"measurement": "opsonization of immunoglobulin on the bacterial surface", "setting": "[15]; EDC34 first preincubated with E. coli bacteria, then mixed with human IgG (Figure 2A)", "value": "less pronounced"}
    ]}
  ]
}
